According to the kinase profiling compilation of Christmann-Franck et al. (2016):

Tests used:
Test in all cases: radiometric filter-binding kinase assay, Kinase HotSpot
Details in all cases: compound 0.5 µM; ATP 10 µM
TXK (human) = TXK (human) (UniProt P42681)
TAOK2 (human) = TAOK2 (human) (UniProt Q9UL54)
NLK (human) = NLK (human) (UniProt Q9UBE8)
MAPKAPK5 (human) = MAPKAPK5 (human) (UniProt Q8IW41)
CSNK1A1 (human) = CSNK1A1 (human) (UniProt P48729)
BRSK1 (human) = BRSK1 (human) (UniProt Q8TDC3)
EPHA8 (human) = EPHA8 (human) (UniProt P29322)
HIPK2 (human) = HIPK2 (human) (UniProt Q9H2X6)
PHKG2 (human) = PHKG2 (human) (UniProt P15735)
Chain of PHKG2 (human) (P15735 whole entry, looked up): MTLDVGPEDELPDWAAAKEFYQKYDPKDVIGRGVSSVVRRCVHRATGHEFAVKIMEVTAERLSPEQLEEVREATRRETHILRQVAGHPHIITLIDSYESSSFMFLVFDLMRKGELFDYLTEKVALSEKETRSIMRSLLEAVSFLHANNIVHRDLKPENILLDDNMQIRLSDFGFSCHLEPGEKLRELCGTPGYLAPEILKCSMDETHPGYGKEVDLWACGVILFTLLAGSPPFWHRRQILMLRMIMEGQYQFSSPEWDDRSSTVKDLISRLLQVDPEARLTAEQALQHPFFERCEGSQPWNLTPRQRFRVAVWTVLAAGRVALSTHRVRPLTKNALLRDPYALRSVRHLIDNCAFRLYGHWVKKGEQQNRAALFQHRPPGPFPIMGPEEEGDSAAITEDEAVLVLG

RPS6KA1 KD1 KD2 (human) = RPS6KA1 KD1 KD2 (human) (UniProt Q15418)
MARK2 (human) = MARK2 (human) (UniProt Q7KZI7)
FLT1 (human) = FLT1 (human) (UniProt P17948)
ADRBK2 (human) = ADRBK2 (human) (UniProt P35626)
Chain of ADRBK2 (human) (P35626 whole entry, looked up): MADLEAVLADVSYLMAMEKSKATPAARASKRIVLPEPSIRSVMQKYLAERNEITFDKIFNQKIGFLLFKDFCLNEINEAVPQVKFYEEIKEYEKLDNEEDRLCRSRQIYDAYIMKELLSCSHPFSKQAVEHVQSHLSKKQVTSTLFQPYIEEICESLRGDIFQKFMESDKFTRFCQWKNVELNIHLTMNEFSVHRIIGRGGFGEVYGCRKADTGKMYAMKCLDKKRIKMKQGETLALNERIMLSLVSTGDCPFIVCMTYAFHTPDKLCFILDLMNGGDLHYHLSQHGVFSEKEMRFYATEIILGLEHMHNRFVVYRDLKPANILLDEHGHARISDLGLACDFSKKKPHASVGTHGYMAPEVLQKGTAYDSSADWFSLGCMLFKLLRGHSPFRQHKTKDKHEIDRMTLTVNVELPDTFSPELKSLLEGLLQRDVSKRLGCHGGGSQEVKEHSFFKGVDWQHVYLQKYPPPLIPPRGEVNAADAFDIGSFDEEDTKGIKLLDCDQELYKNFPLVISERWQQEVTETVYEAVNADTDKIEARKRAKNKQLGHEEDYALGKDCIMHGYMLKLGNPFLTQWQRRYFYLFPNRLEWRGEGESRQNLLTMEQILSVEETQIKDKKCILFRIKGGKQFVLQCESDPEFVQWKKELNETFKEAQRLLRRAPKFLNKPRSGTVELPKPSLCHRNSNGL

RIPK2 (human) = RIPK2 (human) (UniProt O43353)
PRKCA (human) = PRKCA (human) (UniProt P17252)
PIM2 (human) = PIM2 (human) (UniProt Q9P1W9)
GRK4 (human) = GRK4 (human) (UniProt P32298)
NUAK2 (human) = NUAK2 (human) (UniProt Q9H093)
NTRK1 (human) = NTRK1 (human) (UniProt P04629)
Chain of NTRK1 (human) (P04629 whole entry, looked up): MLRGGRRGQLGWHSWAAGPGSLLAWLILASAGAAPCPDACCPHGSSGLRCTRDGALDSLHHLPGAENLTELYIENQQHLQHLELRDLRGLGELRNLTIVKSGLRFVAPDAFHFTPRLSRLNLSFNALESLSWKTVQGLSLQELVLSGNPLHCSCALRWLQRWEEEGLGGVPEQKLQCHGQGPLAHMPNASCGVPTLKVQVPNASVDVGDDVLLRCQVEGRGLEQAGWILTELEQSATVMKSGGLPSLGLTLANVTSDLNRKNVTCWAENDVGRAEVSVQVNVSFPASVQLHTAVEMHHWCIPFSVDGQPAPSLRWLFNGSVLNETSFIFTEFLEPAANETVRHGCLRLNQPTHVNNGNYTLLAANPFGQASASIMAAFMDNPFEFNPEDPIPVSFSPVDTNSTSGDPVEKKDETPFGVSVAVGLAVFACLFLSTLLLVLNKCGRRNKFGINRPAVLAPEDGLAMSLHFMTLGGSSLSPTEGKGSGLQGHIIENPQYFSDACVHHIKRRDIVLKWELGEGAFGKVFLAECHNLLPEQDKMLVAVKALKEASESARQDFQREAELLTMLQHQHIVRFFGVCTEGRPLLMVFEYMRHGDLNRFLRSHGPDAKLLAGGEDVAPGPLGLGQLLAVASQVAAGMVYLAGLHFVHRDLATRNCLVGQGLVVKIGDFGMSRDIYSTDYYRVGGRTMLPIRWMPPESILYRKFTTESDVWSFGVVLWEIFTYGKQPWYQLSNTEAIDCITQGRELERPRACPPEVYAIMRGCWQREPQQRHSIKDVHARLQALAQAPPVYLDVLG

MAPK9 (human) = MAPK9 (human) (UniProt P45984)
MET (human) = MET (human) (UniProt P08581)
STK11 (human) = STK11 (human) (UniProt Q15831)
CDC42BPB (human) = CDC42BPB (human) (UniProt Q9Y5S2)
GRK6 (human) = GRK6 (human) (UniProt P43250)
MYLK (human) = MYLK (human) (UniProt Q15746)
STK3 (human) = STK3 (human) (UniProt Q13188)
NEK3 (human) = NEK3 (human) (UniProt P51956)
Chain of NEK3 (human) (P51956 whole entry, looked up): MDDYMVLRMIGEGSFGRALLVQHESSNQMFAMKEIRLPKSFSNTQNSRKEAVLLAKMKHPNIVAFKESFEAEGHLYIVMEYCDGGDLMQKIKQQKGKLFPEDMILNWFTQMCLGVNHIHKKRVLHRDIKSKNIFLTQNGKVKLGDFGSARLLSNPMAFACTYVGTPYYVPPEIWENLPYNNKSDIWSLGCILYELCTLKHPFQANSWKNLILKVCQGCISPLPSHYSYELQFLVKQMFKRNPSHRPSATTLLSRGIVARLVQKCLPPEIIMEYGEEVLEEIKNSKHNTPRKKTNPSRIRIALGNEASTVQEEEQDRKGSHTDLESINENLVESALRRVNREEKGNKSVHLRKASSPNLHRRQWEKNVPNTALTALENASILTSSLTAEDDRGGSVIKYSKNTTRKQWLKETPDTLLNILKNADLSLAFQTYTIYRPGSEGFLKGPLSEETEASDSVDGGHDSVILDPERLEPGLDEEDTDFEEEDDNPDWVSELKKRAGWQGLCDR

MERTK (human) = MERTK (human) (UniProt Q12866)
STK33 (human) = STK33 (human) (UniProt Q9BYT3)
Chain of STK33 (human) (Q9BYT3 whole entry, looked up): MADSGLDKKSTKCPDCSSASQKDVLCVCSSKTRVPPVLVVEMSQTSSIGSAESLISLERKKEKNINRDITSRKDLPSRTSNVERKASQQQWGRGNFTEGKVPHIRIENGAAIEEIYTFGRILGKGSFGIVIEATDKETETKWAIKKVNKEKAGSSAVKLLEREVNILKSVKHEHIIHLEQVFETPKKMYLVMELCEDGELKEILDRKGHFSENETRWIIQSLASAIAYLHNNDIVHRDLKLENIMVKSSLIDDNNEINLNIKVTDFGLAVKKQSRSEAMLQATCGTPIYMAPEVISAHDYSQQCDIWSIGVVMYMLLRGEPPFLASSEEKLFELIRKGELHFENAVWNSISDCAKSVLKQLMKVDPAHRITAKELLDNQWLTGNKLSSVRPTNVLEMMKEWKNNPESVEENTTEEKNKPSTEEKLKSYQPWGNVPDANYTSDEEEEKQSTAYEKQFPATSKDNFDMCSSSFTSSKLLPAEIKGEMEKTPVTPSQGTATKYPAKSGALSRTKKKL

CDK2 CCNA2 (human) = CDK2 CCNA2 (human) (UniProt P24941+P20248)
NUAK1 (human) = NUAK1 (human) (UniProt O60285)
CSNK1G3 (human) = CSNK1G3 (human) (UniProt Q9Y6M4)
ABL2 (human) = ABL2 (human) (UniProt P42684)
AURKA (human) = AURKA (human) (UniProt O14965)
Chain of AURKA (human) (O14965 whole entry, looked up): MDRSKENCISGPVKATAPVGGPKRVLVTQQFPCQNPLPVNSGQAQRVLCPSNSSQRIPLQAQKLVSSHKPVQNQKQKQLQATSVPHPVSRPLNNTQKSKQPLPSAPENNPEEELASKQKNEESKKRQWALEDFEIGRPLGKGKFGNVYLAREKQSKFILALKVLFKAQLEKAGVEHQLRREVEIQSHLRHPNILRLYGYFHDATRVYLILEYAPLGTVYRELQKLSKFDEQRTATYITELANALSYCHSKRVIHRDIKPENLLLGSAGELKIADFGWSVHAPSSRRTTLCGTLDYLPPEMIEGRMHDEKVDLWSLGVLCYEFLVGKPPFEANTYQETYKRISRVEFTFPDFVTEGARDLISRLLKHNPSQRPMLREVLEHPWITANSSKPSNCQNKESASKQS

EPHA4 (human) = EPHA4 (human) (UniProt P54764)
EPHB3 (human) = EPHB3 (human) (UniProt P54753)
ACVR1B (human) = ACVR1B (human) (UniProt P36896)
Chain of ACVR1B (human) (P36896 whole entry, looked up): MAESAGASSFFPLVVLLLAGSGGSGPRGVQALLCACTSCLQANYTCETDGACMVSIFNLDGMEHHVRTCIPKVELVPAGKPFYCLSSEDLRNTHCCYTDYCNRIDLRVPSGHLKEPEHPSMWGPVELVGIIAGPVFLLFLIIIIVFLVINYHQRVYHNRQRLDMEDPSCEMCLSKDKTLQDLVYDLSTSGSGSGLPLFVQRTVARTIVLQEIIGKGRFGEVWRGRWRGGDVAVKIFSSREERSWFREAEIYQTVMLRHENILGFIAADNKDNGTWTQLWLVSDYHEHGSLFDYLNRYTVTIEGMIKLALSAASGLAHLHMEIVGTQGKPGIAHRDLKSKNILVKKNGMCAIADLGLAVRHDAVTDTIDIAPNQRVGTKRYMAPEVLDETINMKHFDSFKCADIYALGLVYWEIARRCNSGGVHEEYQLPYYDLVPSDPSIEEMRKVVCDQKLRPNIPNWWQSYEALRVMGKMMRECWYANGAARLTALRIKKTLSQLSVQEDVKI

MAP3K8 (human) = MAP3K8 (human) (UniProt P41279)
CDK9 CCNT1 (human) = CDK9 CCNT1 (human) (UniProt P50750+O60563)
JAK3 JH1 JH2 (human) = JAK3 JH1 JH2 (human) (UniProt P52333)
KDR (human) = KDR (human) (UniProt P35968)
CSNK1E (human) = CSNK1E (human) (UniProt P49674)
Chain of CSNK1E (human) (P49674 whole entry, looked up): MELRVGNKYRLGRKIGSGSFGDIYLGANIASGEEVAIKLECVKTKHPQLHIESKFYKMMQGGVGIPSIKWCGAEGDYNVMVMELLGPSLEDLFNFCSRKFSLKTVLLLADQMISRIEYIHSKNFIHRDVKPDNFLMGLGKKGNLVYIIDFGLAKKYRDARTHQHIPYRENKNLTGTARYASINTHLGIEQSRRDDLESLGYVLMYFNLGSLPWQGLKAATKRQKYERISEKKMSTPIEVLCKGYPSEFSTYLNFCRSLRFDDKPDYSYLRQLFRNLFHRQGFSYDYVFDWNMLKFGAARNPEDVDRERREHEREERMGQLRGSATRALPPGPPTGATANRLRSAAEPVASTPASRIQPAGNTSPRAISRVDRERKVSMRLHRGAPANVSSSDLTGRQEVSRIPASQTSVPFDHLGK

Q: `COc1cc2nccc(Oc3ccc(NC(=S)NC(=O)c4ccccc4C)cc3)c2cc1OC` was tested. Which residual activity (TXK (human)) did it give?
A: Its residual activity is 66.9%.

Q: And the residual activity (TAOK2 (human))?
A: Its residual activity is 91.9%.

Q: And the residual activity (NLK (human))?
A: The residual activity was 100%.

Q: And the residual activity (MAPKAPK5 (human))?
A: The residual activity was 99%.

Q: And the residual activity (CSNK1A1 (human))?
A: The residual activity was 96.3%.

Q: What about the residual activity (BRSK1 (human)) of the same compound?
A: Its residual activity is 87%.

Q: What about the residual activity (EPHA8 (human)) of the same compound?
A: Its residual activity is 84.1%.

Q: And the residual activity (HIPK2 (human))?
A: Its residual activity is 99.2%.

Q: What about the residual activity (PHKG2 (human)) of the same compound?
A: Its residual activity is 110%.

Q: What about the residual activity (RPS6KA1 KD1 KD2 (human)) of the same compound?
A: Its residual activity is 97.3%.

Q: What about the residual activity (MARK2 (human)) of the same compound?
A: Its residual activity is 82.3%.

Q: And the residual activity (FLT1 (human))?
A: The residual activity was 89.8%.

Q: And the residual activity (ADRBK2 (human))?
A: The residual activity was 94.9%.

Q: What about the residual activity (RIPK2 (human)) of the same compound?
A: Its residual activity is 89.2%.

Q: What about the residual activity (PRKCA (human)) of the same compound?
A: Its residual activity is 91.3%.

Q: And the residual activity (PIM2 (human))?
A: Its residual activity is 117%.

Q: What about the residual activity (GRK4 (human)) of the same compound?
A: The residual activity was 95.9%.

Q: What about the residual activity (NUAK2 (human)) of the same compound?
A: The residual activity was 106%.

Q: What about the residual activity (NTRK1 (human)) of the same compound?
A: Its residual activity is 82.5%.

Q: What about the residual activity (MAPK9 (human)) of the same compound?
A: The residual activity was 82.7%.

Q: And the residual activity (MET (human))?
A: Its residual activity is 60.4%.

Q: And the residual activity (STK11 (human))?
A: Its residual activity is 106%.

Q: And the residual activity (CDC42BPB (human))?
A: The residual activity was 90.5%.

Q: What about the residual activity (GRK6 (human)) of the same compound?
A: The residual activity was 91%.

Q: And the residual activity (MYLK (human))?
A: The residual activity was 104%.

Q: What about the residual activity (STK3 (human)) of the same compound?
A: The residual activity was 86%.

Q: And the residual activity (NEK3 (human))?
A: Its residual activity is 99.6%.

Q: And the residual activity (MERTK (human))?
A: Its residual activity is 32.3%.

Q: And the residual activity (STK33 (human))?
A: The residual activity was 94.6%.

Q: And the residual activity (CDK2 CCNA2 (human))?
A: Its residual activity is 94.2%.

Q: What about the residual activity (NUAK1 (human)) of the same compound?
A: Its residual activity is 82.5%.

Q: What about the residual activity (CSNK1G3 (human)) of the same compound?
A: The residual activity was 93.3%.

Q: And the residual activity (ABL2 (human))?
A: The residual activity was 74.1%.

Q: What about the residual activity (AURKA (human)) of the same compound?
A: Its residual activity is 18.9%.

Q: What about the residual activity (EPHA4 (human)) of the same compound?
A: Its residual activity is 81.4%.

Q: What about the residual activity (EPHB3 (human)) of the same compound?
A: The residual activity was 95.7%.

Q: And the residual activity (ACVR1B (human))?
A: Its residual activity is 92.1%.

Q: And the residual activity (MAP3K8 (human))?
A: Its residual activity is 94.1%.

Q: And the residual activity (CDK9 CCNT1 (human))?
A: The residual activity was 104%.

Q: And the residual activity (JAK3 JH1 JH2 (human))?
A: The residual activity was 96.6%.

Q: And the residual activity (KDR (human))?
A: Its residual activity is 74.1%.

Q: What about the residual activity (CSNK1E (human)) of the same compound?
A: Its residual activity is 95.1%.

Q: Which results are given for `O=C1Cc2c([nH]c3ccc([N+](=O)[O-])cc23)-c2ccccc2N1`?
A: residual activity (TXK (human)): 87.3%; residual activity (TAOK2 (human)): 88.9%; residual activity (NLK (human)): 95.5%; residual activity (MAPKAPK5 (human)): 92.7%; residual activity (CSNK1A1 (human)): 103%; residual activity (BRSK1 (human)): 39.7%; residual activity (EPHA8 (human)): 104%; residual activity (HIPK2 (human)): 110%; residual activity (PHKG2 (human)): 101%; residual activity (RPS6KA1 KD1 KD2 (human)): 89.7%; residual activity (MARK2 (human)): 52.4%; residual activity (FLT1 (human)): 98.2%; residual activity (ADRBK2 (human)): 88.9%; residual activity (RIPK2 (human)): 43.4%; residual activity (PRKCA (human)): 59.9%; residual activity (PIM2 (human)): 113%; residual activity (GRK4 (human)): 99.3%; residual activity (NUAK2 (human)): 68.6%; residual activity (NTRK1 (human)): 107%; residual activity (MAPK9 (human)): 97.2%; residual activity (MET (human)): 117%; residual activity (STK11 (human)): 90.2%; residual activity (CDC42BPB (human)): 83.3%; residual activity (GRK6 (human)): 93.8%; residual activity (MYLK (human)): 88.8%; residual activity (STK3 (human)): 70.3%; residual activity (NEK3 (human)): 108%; residual activity (MERTK (human)): 83.1%; residual activity (STK33 (human)): 79.9%; residual activity (CDK2 CCNA2 (human)): 8.37%; residual activity (NUAK1 (human)): 12%; residual activity (CSNK1G3 (human)): 90%; residual activity (ABL2 (human)): 54.6%; residual activity (AURKA (human)): 96%; residual activity (EPHA4 (human)): 96.5%; residual activity (EPHB3 (human)): 103%; residual activity (ACVR1B (human)): 109%; residual activity (MAP3K8 (human)): 99%; residual activity (CDK9 CCNT1 (human)): 22.6%; residual activity (JAK3 JH1 JH2 (human)): 99.7%; residual activity (KDR (human)): 87.8%; residual activity (CSNK1E (human)): 95.9%

Q: Which results are given for `O=C(Nc1ccc(Cl)cc1)c1ccccc1NCc1ccncc1`?
A: residual activity (TXK (human)): 97.7%; residual activity (TAOK2 (human)): 102%; residual activity (NLK (human)): 87.2%; residual activity (MAPKAPK5 (human)): 88.7%; residual activity (CSNK1A1 (human)): 88.1%; residual activity (BRSK1 (human)): 94%; residual activity (EPHA8 (human)): 87.6%; residual activity (HIPK2 (human)): 93%; residual activity (PHKG2 (human)): 97.1%; residual activity (RPS6KA1 KD1 KD2 (human)): 92%; residual activity (MARK2 (human)): 92.7%; residual activity (FLT1 (human)): 24.8%; residual activity (ADRBK2 (human)): 96.1%; residual activity (RIPK2 (human)): 82.9%; residual activity (PRKCA (human)): 96.7%; residual activity (PIM2 (human)): 99.5%; residual activity (GRK4 (human)): 96.8%; residual activity (NUAK2 (human)): 137%; residual activity (NTRK1 (human)): 95.5%; residual activity (MAPK9 (human)): 102%; residual activity (MET (human)): 92.2%; residual activity (STK11 (human)): 93.5%; residual activity (CDC42BPB (human)): 79.9%; residual activity (GRK6 (human)): 101%; residual activity (MYLK (human)): 105%; residual activity (STK3 (human)): 94.2%; residual activity (NEK3 (human)): 90.5%; residual activity (MERTK (human)): 79%; residual activity (STK33 (human)): 86.4%; residual activity (CDK2 CCNA2 (human)): 92.2%; residual activity (NUAK1 (human)): 96.5%; residual activity (CSNK1G3 (human)): 105%; residual activity (ABL2 (human)): 93.4%; residual activity (AURKA (human)): 84.4%; residual activity (EPHA4 (human)): 96.5%; residual activity (EPHB3 (human)): 96.9%; residual activity (ACVR1B (human)): 95.8%; residual activity (MAP3K8 (human)): 105%; residual activity (CDK9 CCNT1 (human)): 81.9%; residual activity (JAK3 JH1 JH2 (human)): 87.8%; residual activity (KDR (human)): 28.2%; residual activity (CSNK1E (human)): 92.5%
